In PMC6461504 (ACS infectious diseases, 2019):
Read-outs that look alike come from different tables or passages of the source.

Legend:
S. aureus gyrase [1] = target: T1, S. aureus gyrase (Staphylococcus aureus, UniProt P0A0K8+P20831); assay: DNA cleavage competition assay, gepotidacin vs moxifloxacin; format: biochemical; conditions: 100 μM gepotidacin plus 25 μM moxifloxacin
[2] = system: negatively supercoiled pBR322 DNA; assay: DNA cleavage control without gyrase; conditions: 200 μM gepotidacin, 3 h incubation, no gyrase
S. aureus gyrase [3] = target: T1, S. aureus gyrase
[4] = target: S. aureus gyrase-DNA cleavage complexes (Staphylococcus aureus, UniProt P0A0K8+P20831); assay: Stability; conditions: 5 μM gepotidacin, 20-fold dilution into buffer lacking divalent metal ion
Sequence of S. aureus gyrase-DNA cleavage complexes (P20831 whole entry): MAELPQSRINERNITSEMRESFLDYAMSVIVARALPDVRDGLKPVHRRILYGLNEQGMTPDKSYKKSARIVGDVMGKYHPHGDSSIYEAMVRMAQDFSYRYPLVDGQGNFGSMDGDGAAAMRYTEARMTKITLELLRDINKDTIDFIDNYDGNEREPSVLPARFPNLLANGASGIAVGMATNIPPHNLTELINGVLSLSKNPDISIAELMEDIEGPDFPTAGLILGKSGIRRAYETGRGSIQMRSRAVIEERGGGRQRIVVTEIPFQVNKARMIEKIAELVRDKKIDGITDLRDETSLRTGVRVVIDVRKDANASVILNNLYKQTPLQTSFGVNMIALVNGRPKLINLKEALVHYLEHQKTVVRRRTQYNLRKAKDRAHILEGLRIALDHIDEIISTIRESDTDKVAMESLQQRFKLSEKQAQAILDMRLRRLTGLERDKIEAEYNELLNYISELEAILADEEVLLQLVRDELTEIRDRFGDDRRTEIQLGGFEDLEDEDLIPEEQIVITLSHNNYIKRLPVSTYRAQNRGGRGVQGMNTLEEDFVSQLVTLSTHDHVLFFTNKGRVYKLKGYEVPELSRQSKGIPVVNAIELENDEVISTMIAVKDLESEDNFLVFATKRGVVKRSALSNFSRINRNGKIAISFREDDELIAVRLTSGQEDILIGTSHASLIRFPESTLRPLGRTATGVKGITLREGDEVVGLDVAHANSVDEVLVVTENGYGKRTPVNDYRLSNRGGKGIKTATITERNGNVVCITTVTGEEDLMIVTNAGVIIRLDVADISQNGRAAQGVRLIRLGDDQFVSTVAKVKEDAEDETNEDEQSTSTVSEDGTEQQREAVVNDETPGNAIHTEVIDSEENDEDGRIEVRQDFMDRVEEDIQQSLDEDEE
Sequence of S. aureus gyrase-DNA cleavage complexes (P0A0K8 whole entry): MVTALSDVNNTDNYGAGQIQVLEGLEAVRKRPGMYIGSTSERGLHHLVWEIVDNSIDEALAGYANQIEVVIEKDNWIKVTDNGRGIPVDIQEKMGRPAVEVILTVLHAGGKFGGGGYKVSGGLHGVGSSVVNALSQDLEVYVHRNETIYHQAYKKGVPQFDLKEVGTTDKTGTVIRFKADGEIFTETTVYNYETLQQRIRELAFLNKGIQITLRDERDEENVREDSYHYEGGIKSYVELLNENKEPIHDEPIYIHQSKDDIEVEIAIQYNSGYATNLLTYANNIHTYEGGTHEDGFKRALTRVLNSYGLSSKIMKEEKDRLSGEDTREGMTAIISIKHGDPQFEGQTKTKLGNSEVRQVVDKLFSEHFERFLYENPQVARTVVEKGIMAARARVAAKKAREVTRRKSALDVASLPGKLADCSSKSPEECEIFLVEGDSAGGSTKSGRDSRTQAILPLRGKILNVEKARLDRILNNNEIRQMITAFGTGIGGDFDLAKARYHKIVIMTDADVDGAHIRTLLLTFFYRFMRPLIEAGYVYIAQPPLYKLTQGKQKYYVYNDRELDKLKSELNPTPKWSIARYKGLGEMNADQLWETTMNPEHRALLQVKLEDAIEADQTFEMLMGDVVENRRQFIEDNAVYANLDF

T1 sequence (P0A0K8 whole entry): as above
T1 sequence (P20831 whole entry): as the sequence (P20831 whole entry) above

SMILES	drop in levels of moxifloxacin-induced double-stranded breaks (S. aureus gyrase [1])	DNA cleavage when gyrase was left out [2]	type of DNA breaks at high concentration (S. aureus gyrase [3]; 200 μM, time course 6 times longer than standard)	gyrase-mediated double-stranded DNA cleavage (S. aureus gyrase [3]; 1.5 mM ATP)	type of DNA breaks created (S. aureus gyrase [3]; 5 or 200 μM, negatively supercoiled DNA)	effect on double-stranded DNA cleavage in the presence of Ca2+ (S. aureus gyrase [3]; MgCl2 replaced by CaCl2, increasing gepotidacin concentrations)	gyrase-mediated double-stranded DNA breaks (S. aureus gyrase [3]; high gepotidacin concentration, long cleavage times, or presence of ATP)	levels of single-stranded breaks, positively vs negatively supercoiled plasmid (S. aureus gyrase [3]; lower with positively supercoiled plasmid)	single-stranded DNA breaks, share of the initial substrate (S. aureus gyrase [3]; negatively supercoiled plasmid, low micromolar concentrations)	gyrase-mediated double-stranded DNA breaks (S. aureus gyrase [3]; positively supercoiled DNA)	stability of gyrase-DNA cleavage complexes [4]	fall in potency with positively vs negatively supercoiled substrates (S. aureus gyrase [3]; double-stranded breaks)
O=c1ccc2ncc(=O)n3c2n1C[C@H]3CN1CCC(NCc2cc3c(cn2)OCCC3)CC1 [Gepotidacin]	~ 95%	no DNA cleavage was observed	only single-stranded breaks were observed	no double-stranded DNA cleavage was observed	all of the breaks created in the presence of gepotidacin were single-stranded	coordinate decrease in levels of double-stranded DNA cleavage	No double-stranded breaks were observed	~ 2 fold	more than 30%	no double-stranded breaks were observed	> 4 h	–
COc1c(N2C[C@@H]3CCCN[C@@H]3C2)c(F)cc2c(=O)c(C(=O)O)cn(C3CC3)c12 [moxifloxacin, reference compound]	–	–	–	–	–	–	–	–	–	–	–	~ 8 fold
